In patent US20240057598A1, “USE OF 2-AMINO-3-METHYLHEXANOIC ACID AS PLANT IMMUNITY INDUCER” (NANJING AGRICULTURAL UNIVERSITY, priority 2020, published 2024):

Legend:
Pseudomonas aeruginosa = conditions: cited from earlier work
ryegrass = experiment: Induced resistance of ryegrass to high temperature stress; format: in vivo; conditions: for Dry weight of overground part / Fresh weight of overground part / Heat injury index: 45° C. 12 h, 7 days recovery
Description: 2-amino-3-methylhexanoic acid was dissolved in distilled water and diluted with distilled water into solutions of 1 nM, 10 nM, 100 nM and 1,000 nM by gradient. A blank control was additionally set, and 0.02% Tween 20 was added as a surfactant. 4 groups of repetitions were set for each concentration, and a normal temperature blank control was set at the same time. Ryegrass seeds were weighed according to 0.8 g per pot, sowed in a pot with a diameter of 8.5 cm, and planted in a greenhouse at a temperature of 25° C., a humidity of 60%-70%, and a light intensity of 200 μmolm^−2s^−1 (12 h light/12 h dark). On the 8th day of the seedling stage, the ryegrass was sprayed with the 2-amino-3-methylhexanoic acid solutions on the leaves twice in 24 h. 24 h after the second treatment, the plants were transferred to a light incubator at a temperature of 45° C. for conducting high temperature stress treatment for 12 h, and then the plants were taken out and transferred to a greenhouse at a temperature of 25° C. for 7 days of recovery. The injured conditions of the plants were observed and counted, and the heat injury grade was calculated. […] After the counting, the fresh weight of the aboveground part of the plant was weighed, and then the aboveground part was baked in an 85° C. oven for 48 h to determine the dry weight.

[1] = system: Pseudomonas syringae PstDC3000; experiment: Induced resistance of Arabidopsis to Pseudomonas syringae infection; format: in vivo; conditions: for Number of bacteria in each milligram of leaf: Arabidopsis leaves, 3 days after inoculation; for Decrease of number of bacteria in each milligram of leaf: compared with blank control; for Decrease of disease index: versus blank control
Description: 2-amino-3-methylhexanoic acid was dissolved in sterile water and then diluted with sterile water into solutions of 1 nM, 10 nM, 100 nM, 1,000 nM and 10,000 nM by gradient. A blank control was additionally set, and 0.02% Tween 20 was added as a surfactant. Pseudomonas syringae PstDC3000 was spread on an LB plate and cultured at 28° C. for 48 h. Monoclonal colonies were selected and transferred into a 50 mL centrifuge tube containing 2 mL of a culture medium, and cultured on a shaker at 28° C. and 250 rpm. The change of the OD600 value of the bacterial solution was monitored every 1-2 h, and culture of bacteria was stopped before the OD600 value reached 0.8. 1 mL of bacterial solution was transferred into a 1.5 mL sterile centrifuge tube and centrifuged at 8,000 rpm for 2 min, and the precipitate was collected. The supernatant was removed, the precipitate was washed with 10 mM magnesium chloride three times and centrifuged, and finally the PstDC3000 was suspended in 10 mM magnesium chloride to make the OD600 value thereof reach 0.001 for use. Arabidopsis seeds were soaked in 75% alcohol for 3 min, then washed with sterile water 4 times, and sowed in a culture dish containing a ½ MS medium according to 12 seeds per culture dish. The ½ MS culture dish with seeds was vernalized at 4° C. for 3 days to break dormancy, and then placed in a culture room at 24° C. with a light intensity of 100 μEm^−2s^−1 (16 h light/8 h dark). When the seedlings grew for 2 weeks, the 2-amino-3-methylhexanoic acid of different concentrations was slowly poured into the culture dish until the whole Arabidopsis seedlings were submerged, and after 2-3 min, the treatment solution was poured out of the culture dish. The treatment was repeated once after 24 h and conducted twice in total. 24 h after the second treatment, the Arabidopsis leaves were inoculated with the PstDC3000 suspension (OD600=0.01) by the same submergence method. After inoculation, the culture dish was closed with a medical breathable adhesive tape, and placed in the culture room for further culture. 3 days later, the number of bacteria in different treatment groups was determined. The incidence of Arabidopsis was observed. The disease index was calculated by a formula the same as that in Example 1.
Grading standard of disease caused by PstDC3000 (per leaf): • Grade 0: No diseased spot on the leaf surface. • Grade 1: The diseased spot area accounts for 0-10% of the whole leaf area. • Grade 2: The diseased spot area accounts for 10-25% of the whole leaf area. • Grade 3: The diseased spot area accounts for 25-50% of the whole leaf area. • Grade 4: The diseased spot area accounts for 50-75% of the whole leaf area. • Grade 5: The diseased spot area accounts for 75-100% of the whole leaf area.

Brevibacterium helvolum = conditions: cited from earlier work
Bacillus subtilis = conditions: cited from earlier work
E. coli B = conditions: cited from earlier work
[2] = system: tea "Baiye 1" cutting seedlings; experiment: Induced resistance of tea to low temperature stress; format: in vivo; conditions: for PIABS / Cold injury index: tea seedlings, −4° C. for 24 h; for Cold injury index: 3 days recovery
Description: The tea trees tested were “Baiye 1” cutting seedlings. Tea seedlings with relatively consistent growth were transplanted into a plastic pot with a diameter of 18 cm and placed in a greenhouse at a temperature of 25° C. and a humidity of 60%-70% for adaptive growth for about a week. The concentrations of 0, 1, 10, 100 and 1,000 nM were set in the experiment, and 0.02% Tween 20 was added as a surfactant. The spray treatment method was the same as that of the ryegrass in Example 4, and the low temperature stress treatment was conducted at −4° C. for 24 h. After the stress was completed, the tea seedlings were taken out and treated in the dark at room temperature for 30 min, and then the chlorophyll fluorescence parameters of the top leaves of the tea seedlings was determined using the plant efficiency analyzer Handy PEA. Then, the tea seedlings were placed in a 25° C. greenhouse to recover for 3 days, and the cold injury status was observed, counted and graded.

P. fluorescens = conditions: cited from earlier work
[3] = 100 nM, compared with untreated control group
[4] = 1,000 nM, tea leaves, low temperature stress

CCCC(C)C(N)C(=O)O (stereo not shown) [2-amino-3-methylhexanoic acid]
Inhibitory effect (Pseudomonas aeruginosa): slight inhibitory effect | Optimal use concentration to alleviate high temperature stress (ryegrass): 100 nM | Dry weight of overground part (ryegrass; 1 nM): 0.4 ± 0.01bc g | Fresh weight of overground part (ryegrass; 1 nM): 1.96 ± 0.19b g | Heat injury index (ryegrass; 1 nM): 70% | Dry weight of overground part (ryegrass; 10 nM): 0.46 ± 0.04ab g | Fresh weight of overground part (ryegrass; 10 nM): 2.14 ± 0.095 g | Heat injury index (ryegrass; 10 nM): 60% | Dry weight of overground part (ryegrass; 100 nM): 0.44 ± 0.02nb g | Fresh weight of overground part (ryegrass; 100 nM): 2.60 ± 0.02b g | Heat injury index (ryegrass; 100 nM): 30% | Increase of dry weight of aboveground part (ryegrass; [3]): 25% | Increase of fresh weight of aboveground part (ryegrass; [3]): 162% | Dry weight of overground part (ryegrass; 1,000 nM): 0.45 ± 0.01ab g | Fresh weight of overground part (ryegrass; 1,000 nM): 2.42 ± 0.15b g | Heat injury index (ryegrass; 1,000 nM): 30% | Disease index ([1]; 10 nM, Arabidopsis): 45.00 ± 2.78b | Number of bacteria in each milligram of leaf ([1]; 10 nM): 3.81 × 10^5 CPU/mg | Decrease of number of bacteria in each milligram of leaf ([1]; 10 nM): 88.24% | Decrease of disease index ([1]; 10 nM): 42.33 | Number of bacteria in each milligram of leaf ([1]; 100 nM): 2.49×10^5 CPU/mg | Decrease of number of bacteria in each milligram of leaf ([1]; 100 nM): 92.31% | Decrease of disease index ([1]; 100 nM): 45.85 | Inhibitory effect (Brevibacterium helvolum): no inhibitory effect | Inhibitory effect (Bacillus subtilis): obvious inhibitory effect | Inhibitory effect (E. coli B): slight inhibitory effect | PIABS ([2]; 1 nM): 17.69 ± 2.12b | Cold injury index ([2]; 1 nM): 45% | PIABS ([2]; 10 nM): 21.30 ± 1.73ab | Cold injury index ([2]; 10 nM): 30% | PIABS ([2]; 100 nM): 27.01 ± 3.27a | Cold injury index ([2]; 100 nM): 15% | Decrease of cold injury index [2, 4]: 65% | Increase of PIABS [2, 4]: 313% | PIABS ([2]; 1,000 nM): 30.42 ± 3.51a | Cold injury index ([2]; 1,000 nM): 10% | Inhibitory effect (P. fluorescens): no inhibitory effect
